In ChEMBL document CHEMBL5149985, “Discovery of cytotoxic natural products from Red Sea sponges: Structure and synthesis” (Eur J Med Chem, 2021):

Legend:
HT-29 [1] = assay: Anticancer activity against human HT-29 cells assessed as cell growth inhibition by crystal violet staining based assay; format: functional
OVCAR-3 = assay: Anticancer activity against human OVCAR-3 cells assessed as cell growth inhibition by crystal violet staining based assay; format: functional
MM1.S = assay: Anticancer activity against human MM1.S cells assessed as cell growth inhibition by MTT assay; format: functional, cell-based
HCT-116 [2] = assay: Antiproliferative activity against human HCT-116 cells assessed as cell viability measured after 24 hrs by MTT assay; format: functional, cell-based; settings: HCT-116, 24 h
MDA-MB-231 [3] = assay: Anticancer activity against human MDA-MB-231 cells assessed as cell viability measured after 24 hrs by MTT assay; format: functional, cell-based; settings: MDA-MB-231, 24 h
HeLa [4] = assay: Antiproliferative activity against human HeLa cells assessed as cell viability measured after 24 hrs by MTT assay; format: functional, cell-based
HepG2 [5] = assay: cells; settings: Homo sapiens
Description: Anticancer activity against human HepG2 cells assessed as inhibition of cell growth by MTT assay

HCT-116 [6] = assay: cells; settings: Homo sapiens
Description: Anticancer activity against human HCT-116 cells assessed as inhibition of cell growth by MTT assay

MCF7 [7] = assay: Anticancer activity against human MCF7 cells assessed as inhibition of cell growth by MTT assay; format: functional, cell-based
MCF7 [8] = assay: Anticancer activity against human MCF7 cells assessed as inhibition of cell growth; format: functional, cell-based
PC-3 = assay: Anticancer activity against human PC-3 cells assessed as inhibition of cell growth; format: functional, cell-based
A549 [9] = assay: Anticancer activity against human A549 cells assessed as cell growth inhibition; format: functional, cell-based
MDA-MB-231 [10] = assay: Antiproliferative activity against human MDA-MB-231 cells assessed as cell growth inhibition incubated for 72 hrs by SRB assay; format: functional, cell-based; settings: MDA-MB-231, 72 h
HT-29 [11] = assay: Antiproliferative activity against human HT-29 cells assessed as cell growth inhibition incubated for 72 hrs by SRB assay; format: functional, cell-based; settings: HT-29, 72 h
A549 [12] = assay: Antiproliferative activity against human A549 cells assessed as cell growth inhibition incubated for 72 hrs by SRB assay; format: functional, cell-based; settings: A549, 72 h
BT-474 = assay: Anticancer activity against human BT-474 cells assessed as cell growth inhibition incubated for 48 hrs by MTT assay; format: functional, cell-based; settings: BT-474, 48 h
HT-29 [13] = assay: Anticancer activity against human HT-29 cells assessed as inhibition of cell growth; format: functional, cell-based
P388 [14] = assay: Anticancer activity against mouse P388 cells assessed as inhibition of cell growth; format: functional, cell-based
A549 [15] = assay: Anticancer activity against human A549 cells assessed as inhibition of cell growth; format: functional, cell-based
HepG2 [16] = assay: Anticancer activity against human HepG2 cells assessed as inhibition of cell growth; format: functional, cell-based
P388 [17] = assay: Anticancer activity against mouse P388 cells assessed as inhibition of cell growth by dilution assay; format: functional, cell-based
HT-29 [18] = assay: Anticancer activity against human HT-29 cells assessed as inhibition of cell growth by dilution assay; format: functional, cell-based
A549 [19] = assay: Anticancer activity against human A549 cells assessed as inhibition of cell growth by dilution assay; format: functional, cell-based
HT-29 [20] = assay: Anticancer activity against human HT-29 cells assessed as cell growth inhibition; format: functional, cell-based
P388 [21] = assay: Anticancer activity against mouse P388 cells assessed as cell growth inhibition; format: functional, cell-based
SK-MEL-28 = assay: Anticancer activity against human MEL-28 cells assessed as cell growth inhibition; format: functional, cell-based
KB 3-1 = assay: Anticancer activity against human KB 3-1 cells assessed as inhibition in cell growth; format: functional, cell-based
P388 [22] = assay: Anticancer activity against mouse P388 cells assessed as reduction in cell growth; format: functional, cell-based
HeLa [23] = assay: Anticancer activity against human HeLa cells assessed as inhibition of cell growth; format: functional, cell-based
Daoy = assay: Anticancer activity against human Daoy cells assessed as inhibition of cell growth; format: functional, cell-based
L5178Y [24] = assay: Anticancer activity against mouse L5178Y assessed as cell growth inhibition by [3H]-thymidine assay relative to control; format: functional
L5178Y [25] = assay: Anticancer activity against mouse L5178Y assessed as cell growth inhibition by [3H]-thymidine assay; format: functional, cell-based

Question: What does the source list for `O=C1Nc2ccc(Br)cc2[C@@]1(c1cc2ccccc2[nH]1)c1c[nH]c2ccccc12`?
Answer: IC50 (HT-29 [1]): 8 µM; IC50 (OVCAR-3): 7 µM; IC50 (MM1.S): 9 µM

Question: For `COC1=C(Br)C[C@@]2(OC=C1Br)ON=C(C(=O)NCCCOc1c(Br)cc(CCNC(N)=O)cc1Br)[C@H]2O`, which IC50 (HCT-116 [2]) is on record?
Answer: 8.2 µM

Question: And the IC50 (MDA-MB-231 [3])?
Answer: 19.4 µM

Question: What about the IC50 (HeLa [4]) of the same molecule?
Answer: 22.2 µM

Question: What does the source list for `CC[C@@]1(C)CCC[C@]2(C)[C@H]3C[C@H](OC(C)=O)[C@]45C[C@@H](O)[C@H]4C(C(C)=O)=CC[C@H]5[C@]3(C)CC[C@@H]12`?
Answer: IC50 (HepG2 [5]): 0.0038 µM; IC50 (HCT-116 [6]): 0.0029 µM; IC50 (MCF7 [7]): 0.0029 µM

Question: With `C=C1CCC[C@@H]2[C@@](C)(CC[C@@]3(C)CC[C@@H]([C@H](C)C(=O)O)OO3)[C@H](C)CC[C@@]12C` as the molecule, how does the IC50 (MCF7 [8]) read?
Answer: 36 µM

Question: And the IC50 (PC-3)?
Answer: 44 µM

Question: And the IC50 (A549 [9])?
Answer: 24 µM

Question: Which results are given for `COc1ccc2[nH]c3c(-c4c[nH]c5cc(O)ccc45)ncc(C(=O)O)c3c2c1`?
Answer: IC50 (MDA-MB-231 [10]): 90 µM; IC50 (HT-29 [11]): 85 µM; IC50 (A549 [12]): 100 µM

Question: How did the IC50 (BT-474) turn out when `[O-][N+]12CCC[C@]3(O)CCCCCC[C@@H]4CCN5CCC[C@](O)(CCCCCC[C@H](CC1)O[C@@H]32)[C@@H]5O4` (stereo not given in full) was run?
Answer: 35.6 µM

Question: For `CC1=C(CCC(C)(O)/C=C/C[C@@]2(C)CC[C@H]([C@@H](C)C(=O)O)OO2)C(C)(C)CCC1` (stereo not given in full), which IC50 (HT-29 [13]) is on record?
Answer: > 0.0024 µM

Question: What about the IC50 (P388 [14]) of the same molecule?
Answer: > 0.0024 µM

Question: What about the IC50 (A549 [15]) of the same molecule?
Answer: > 0.0024 µM

Question: `C/C1=C/C(=O)O[C@@H]2C[C@@H](CC[C@H](C)/C=C\CC1)O[C@@](O)([C@@H]1CSC(=O)N1)C2` [LATRUNCULIN B] was tested. Which IC50 (HepG2 [16]) did it give?
Answer: 19.3 µM

Question: For `CC1(C)CCC[C@]2(C)[C@H]3C[C@@H](O)[C@]4(C)c5cocc5C(=O)C[C@H]4[C@]3(C)CC[C@@H]12` [SALMAHYRTISOL B], which IC50 (P388 [17]) is on record?
Answer: 0.0022 µM

Question: And the IC50 (HT-29 [18])?
Answer: > 0.0022 µM

Question: What about the IC50 (A549 [19]) of the same molecule?
Answer: 0.0022 µM

Question: With `C=C(CCC1=C(C)CCCC1(C)C)C(O)CC[C@@]1(C)CC[C@H]([C@@H](C)C(=O)O)OO1` (stereo not given in full) as the molecule, how does the IC50 (HT-29 [13]) read?
Answer: > 0.0024 µM

Question: What about the IC50 (P388 [14]) of the same molecule?
Answer: > 0.0024 µM

Question: And the IC50 (A549 [15])?
Answer: > 0.0024 µM

Question: With `O=C(O)c1cnc(-c2c[nH]c3cc(O)ccc23)c2[nH]c3ccc(O)cc3c12` as the molecule, how does the IC50 (MDA-MB-231 [10]) read?
Answer: 25 µM

Question: What about the IC50 (HT-29 [11]) of the same molecule?
Answer: 28 µM

Question: What about the IC50 (A549 [12]) of the same molecule?
Answer: 30 µM

Question: `CCCCCCCCCCCCC(=O)N[C@@H](CO)[C@H](O)[C@H](O)CCCCCCCCCC` was tested. Which IC50 (MCF7 [8]) did it give?
Answer: > 200 µM

Question: What about the IC50 (HepG2 [16]) of the same molecule?
Answer: 107 µM

Question: For `C#C/C=C\CCCCC#CC#CCCCCCC#CCO`, which IC50 (MCF7 [8]) is on record?
Answer: 11.7 µM

Question: Which results are given for `C=C1CCC[C@@H]2[C@@](C)(CC[C@@]3(C)CCn4cnc5ncnc(c54)N3O)[C@H](C)CC[C@]12C`?
Answer: IC50 (HT-29 [20]): 0.12 µM; IC50 (P388 [21]): 0.24 µM; IC50 (A549 [9]): 0.12 µM; IC50 (SK-MEL-28): 0.24 µM

Question: What does the source list for `CC1=CCC2C(CC[C@@]2(C)O)C(C)(C)[C@@H]1CC[C@H]1[C@@](C)(O)CCC2OC(C)(C)[C@H](O)CC[C@@]21C` (stereo not given in full)?
Answer: IC50 (PC-3): 7.9 µM; IC50 (A549 [15]): 8.9 µM; IC50 (KB 3-1): 0.0048 µM

Question: `COC1=CC(=O)C(C[C@]2(C)[C@@H](C)CC[C@]3(C)C(C)=CCC[C@@H]23)=C(O)C1=O` was tested. Which IC50 (P388 [22]) did it give?
Answer: > 0.054 µM

Question: Which IC50 (HepG2 [16]) does the source give for `O=C(O)CCCC#CC#C/C=C/CCCCCCC=C(Br)Br` here?
Answer: 0.0412 µM

Question: What about the IC50 (HeLa [23]) of the same molecule?
Answer: 0.0535 µM

Question: What about the IC50 (Daoy) of the same molecule?
Answer: 0.0356 µM

Question: What does the source list for `CCCCCCCC/C=C\CCCCCCC[C@@H](O)C(=O)N[C@@H](CO)[C@H](O)[C@H](O)CCCCCCCCCCCCCCCCCCC`?
Answer: IC50 (MCF7 [8]): 29.8 µM; IC50 (HepG2 [16]): 21.3 µM

Question: With `C[C@@H]1CN2CCC[C@H]3CCCCCC[C@H]4CCN5CCC[C@@](O)(CCCCCC[C@@H]1O[C@H]32)[C@H]5O4` [XESTOSPONGIN B] as the molecule, how does the IC50 (BT-474) read?
Answer: 52.5 µM

Question: With `CC(=O)Oc1c(O)ccc(O)c1C[C@]1(C)[C@@H](C)CC[C@]2(C)C(C)=CCC[C@@H]12` as the molecule, how does the IC50 (P388 [22]) read?
Answer: < 0.0016 µM

Question: For `O=C(O)CCCCCC#C/C=C/CCCCC#C/C=C/Br`, which IC50 (HeLa [23]) is on record?
Answer: 0.0865 µM

Question: What about the IC50 (Daoy) of the same molecule?
Answer: 0.0658 µM

Question: What does the source list for `O=Cc1c[nH]c2ccccc12` [3-FORMYLINDOLE]?
Answer: inhibition (INH) (L5178Y [24]): 53%; IC50 (L5178Y [25]): 0.069 µM

Question: `CC1=C(CC/C(C)=C/CC[C@@]2(C)CC[C@H]([C@@H](C)C(=O)O)OO2)C(C)(C)CCC1` was tested. Which IC50 (MCF7 [8]) did it give?
Answer: 7 µM

Question: What about the IC50 (PC-3) of the same molecule?
Answer: 8 µM

Question: What about the IC50 (A549 [9]) of the same molecule?
Answer: 3 µM

Question: How did the IC50 (P388 [14]) turn out when `CO[C@@]1(C)CCC(C(C)C)=C[C@@H]2[C@H]1CC[C@]2(C)O` was run?
Answer: > 0.004 µM
